In ChEMBL document CHEMBL1201862, “PubChem BioAssay data set” (2004):
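Tested at 5 concentrations; 48 h exposure; 96-well plates; endpoints linearly interpolated, else capped at highest concentration. GI50 is the concentration that inhibits growth by half.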 Activity calls are given as the source filed them. Rule as the data show it: active = GI50 up to about 1.1 µM and inactive = higher.

Experiments:
Experiment in all cases: inhibition of tumour cell growth, NCI panel, 48 h
SF-539 = test system: SF-539
HT-29 = test system: HT-29
HCC 2998 = test system: HCC 2998
SF-295 = test system: SF-295
MDA-MB-435 = test system: MDA-MB-435
HOP-92 = test system: HOP-92
SK-MEL-5 = test system: SK-MEL-5
HL-60 = test system: HL-60
SK-OV-3 = test system: SK-OV-3
SNB-75 = test system: SNB-75
NCI/ADR-RES = test system: NCI/ADR-RES
SF-268 = test system: SF-268
U-251 = test system: U-251
T47D = test system: T47D
OVCAR-3 = test system: OVCAR-3
Hs-578T = test system: Hs-578T
OVCAR-8 = test system: OVCAR-8
SW-620 = test system: SW-620
MCF7 = test system: MCF7
SR = test system: SR

| SMILES | GI50 (SF-539) | GI50 (HT-29) | GI50 (HCC 2998) | GI50 (SF-295) | GI50 (MDA-MB-435) | GI50 (HOP-92) | GI50 (SK-MEL-5) | GI50 (HL-60) | GI50 (SK-OV-3) | GI50 (SNB-75) | GI50 (NCI/ADR-RES) | GI50 (SF-268) | GI50 (U-251) | GI50 (T47D) | GI50 (OVCAR-3) | GI50 (Hs-578T) | GI50 (OVCAR-8) | GI50 (SW-620) | GI50 (MCF7) | GI50 (SR) |
| --- | --- | --- | --- | --- | --- | --- | --- | --- | --- | --- | --- | --- | --- | --- | --- | --- | --- | --- | --- | --- |
| Cc1cc2c(cc1Cl)SC(N/N=C(\N)c1ccc(Cl)cc1)=NS2(=O)=O | 32.3 µM (inactive) | 52.8 µM (inactive) | 40.6 µM (inactive) | 71.3 µM (inactive) | 61.8 µM (inactive) | 10.4 µM (inactive) | > 100 µM (inactive) | 40.5 µM (inactive) | > 100 µM (inactive) | 74.5 µM (inactive) | > 100 µM (inactive) | 45.6 µM (inactive) | 44.7 µM (inactive) | 53.3 µM (inactive) | 34.7 µM (inactive) | 48.5 µM (inactive) | 45.4 µM (inactive) | 25.8 µM (inactive) | 14.1 µM (inactive) | – |
| S=c1[nH]c2c(Cl)c(Cl)c(Cl)c(Cl)c2[nH]1 | 12.1 µM (inactive) | 24 µM (inactive) | 0.955 µM (active) | 17.5 µM (inactive) | 17.5 µM (inactive) | 19.5 µM (inactive) | 17.6 µM (inactive) | 1.75 µM (inactive) | 20.1 µM (inactive) | – | 18.5 µM (inactive) | 12.1 µM (inactive) | 31.7 µM (inactive) | 52.5 µM (inactive) | 26.7 µM (inactive) | 18.5 µM (inactive) | 23.2 µM (inactive) | 19.8 µM (inactive) | 16.8 µM (inactive) | – |
| CN(C)CCCNC(=O)CNC(=O)c1cc(NC(=O)c2cc(NC(=O)c3cc(NC(=O)CCNC(=O)c4cc(NC(=O)c5cc(NC(=O)c6nccn6C)cn5C)cn4C)cn3C)cn2C)cn1C | > 100 µM (inactive) | > 100 µM (inactive) | > 100 µM (inactive) | > 100 µM (inactive) | > 100 µM (inactive) | > 100 µM (inactive) | > 100 µM (inactive) | 43 µM (inactive) | > 100 µM (inactive) | 41.3 µM (inactive) | > 100 µM (inactive) | > 100 µM (inactive) | > 100 µM (inactive) | > 100 µM (inactive) | > 100 µM (inactive) | > 100 µM (inactive) | > 100 µM (inactive) | > 100 µM (inactive) | > 100 µM (inactive) | – |
| CCOC(=O)CCC1(C(=O)O[C@@H]2C[C@H](C)CC[C@H]2C(C)C)CCCCC1=O (stereo partly drawn) | > 100 µM (inactive) | 43.3 µM (inactive) | – | 65.8 µM (inactive) | 74.1 µM (inactive) | 52.4 µM (inactive) | 31.1 µM (inactive) | 18.2 µM (inactive) | > 100 µM (inactive) | 42 µM (inactive) | 55.2 µM (inactive) | > 100 µM (inactive) | 63.2 µM (inactive) | 34.8 µM (inactive) | 45.8 µM (inactive) | > 100 µM (inactive) | > 100 µM (inactive) | > 100 µM (inactive) | 58.6 µM (inactive) | 41.2 µM (inactive) |
| COC(=O)[C@]1(C)CC[C@]2(C)CC[C@]3(C)C4[C@H]5Oc6c(cc7c(c6C)CCC6[C@@]7(C)CC[C@@]7(C)C8[C@](C)(CCC[C@@]8(C)C(=O)OC)CC[C@]67C)O[C@H]5c5c(cc6c(c5C)O[C@@]5(C)C7=CC=C8[C@@](C)(CC[C@@]9(C)[C@@H]%10C[C@](C)(C(=O)OC)CC[C@]%10(C)CC[C@]89C)C7=CC(=O)[C@@]5(O)O6)[C@]4(C)CC[C@@]3(C)C2C1 (stereo partly drawn) | 2.63 µM (inactive) | 3.66 µM (inactive) | – | > 12.5 µM (inactive) | 3.56 µM (inactive) | 1.92 µM (inactive) | 3.69 µM (inactive) | 5.32 µM (inactive) | > 12.5 µM (inactive) | 2.79 µM (inactive) | > 12.5 µM (inactive) | 4.5 µM (inactive) | 3.66 µM (inactive) | 2.11 µM (inactive) | 2.64 µM (inactive) | 5.78 µM (inactive) | 2.63 µM (inactive) | 2.53 µM (inactive) | 3.11 µM (inactive) | – |
| CCCC[C@H]1CCN2C[C@@H](O)[C@@H](O)[C@H]2[C@@H]1O | > 100 µM (inactive) | > 100 µM (inactive) | > 100 µM (inactive) | > 100 µM (inactive) | > 100 µM (inactive) | > 100 µM (inactive) | > 100 µM (inactive) | > 100 µM (inactive) | > 100 µM (inactive) | > 100 µM (inactive) | > 100 µM (inactive) | > 100 µM (inactive) | > 100 µM (inactive) | > 100 µM (inactive) | > 100 µM (inactive) | > 100 µM (inactive) | > 100 µM (inactive) | > 100 µM (inactive) | > 100 µM (inactive) | – |
| N=C/N=C/C(=S)O[C@@H]1C(=O)N2CCC[C@@]23CCCC[C@@H]13 | – | > 12.5 µM (inactive) | > 12.5 µM (inactive) | > 12.5 µM (inactive) | > 12.5 µM (inactive) | – | > 12.5 µM (inactive) | > 12.5 µM (inactive) | > 12.5 µM (inactive) | > 12.5 µM (inactive) | > 12.5 µM (inactive) | > 12.5 µM (inactive) | > 12.5 µM (inactive) | > 12.5 µM (inactive) | – | > 12.5 µM (inactive) | > 12.5 µM (inactive) | – | > 12.5 µM (inactive) | > 12.5 µM (inactive) |
| C[C@@H](c1ccccc1)N1CN(C(=O)OCc2ccccc2)C(CO)C1=O (stereo partly drawn) | > 100 µM (inactive) | 70.3 µM (inactive) | > 100 µM (inactive) | > 100 µM (inactive) | > 100 µM (inactive) | – | > 100 µM (inactive) | > 100 µM (inactive) | > 100 µM (inactive) | > 100 µM (inactive) | > 100 µM (inactive) | > 100 µM (inactive) | > 100 µM (inactive) | > 100 µM (inactive) | > 100 µM (inactive) | > 100 µM (inactive) | > 100 µM (inactive) | > 100 µM (inactive) | 47.2 µM (inactive) | > 100 µM (inactive) |
| O=C1/C(=C/c2cccnc2)SC(=S)N1Cc1ccco1 | 2.33 µM (inactive) | 4.01 µM (inactive) | – | 35.7 µM (inactive) | 2.15 µM (inactive) | 5.32 µM (inactive) | 13.4 µM (inactive) | – | 19.1 µM (inactive) | – | 20.1 µM (inactive) | 5.94 µM (inactive) | 4.37 µM (inactive) | 11.7 µM (inactive) | 3.31 µM (inactive) | 8.39 µM (inactive) | 4.7 µM (inactive) | 3.84 µM (inactive) | 3.28 µM (inactive) | 1.44 µM (inactive) |
| CC1=CC(=O)N(n2c(-c3ccccc3)n[nH]c2=O)C1=O | > 100 µM (inactive) | > 100 µM (inactive) | > 100 µM (inactive) | > 100 µM (inactive) | > 100 µM (inactive) | – | > 100 µM (inactive) | > 100 µM (inactive) | > 100 µM (inactive) | > 100 µM (inactive) | > 100 µM (inactive) | > 100 µM (inactive) | > 100 µM (inactive) | > 100 µM (inactive) | > 100 µM (inactive) | > 100 µM (inactive) | > 100 µM (inactive) | > 100 µM (inactive) | > 100 µM (inactive) | – |
| Cc1nc(Nc2nc3ccccc3[nH]2)nc(Cl)c1CCCl | > 100 µM (inactive) | > 100 µM (inactive) | – | – | > 100 µM (inactive) | < 0.01 µM (active) | > 100 µM (inactive) | > 100 µM (inactive) | – | 89.3 µM (inactive) | > 100 µM (inactive) | 95.7 µM (inactive) | 49 µM (inactive) | > 100 µM (inactive) | – | 83.8 µM (inactive) | > 100 µM (inactive) | > 100 µM (inactive) | – | > 100 µM (inactive) |
| COC(=O)c1cc(NC(=O)Cc2c[nH]c3ccccc23)cn1C | > 100 µM (inactive) | 65.9 µM (inactive) | 68.1 µM (inactive) | > 100 µM (inactive) | 55.8 µM (inactive) | – | 70.3 µM (inactive) | > 100 µM (inactive) | > 100 µM (inactive) | – | > 100 µM (inactive) | 88.5 µM (inactive) | 68.4 µM (inactive) | > 100 µM (inactive) | > 100 µM (inactive) | 33.7 µM (inactive) | 66.5 µM (inactive) | > 100 µM (inactive) | 60.8 µM (inactive) | 39.4 µM (inactive) |
| CC(=O)c1cc2c(s1)C(=O)c1ccsc1C2=O | 0.27 µM (active) | 1.85 µM (inactive) | 1.74 µM (inactive) | 0.16 µM (active) | 0.0713 µM (active) | 1.56 µM (inactive) | 0.0559 µM (active) | 0.0442 µM (active) | 1.87 µM (inactive) | 0.192 µM (active) | 0.378 µM (active) | 0.301 µM (active) | 0.233 µM (active) | 1.31 µM (inactive) | 0.22 µM (active) | 0.158 µM (active) | 0.373 µM (active) | 0.275 µM (active) | 0.293 µM (active) | – |
| Cc1ccc(S(=O)(=O)N2C[C@](O)(c3ccccc3)[C@H]2C)cc1 | > 100 µM (inactive) | > 100 µM (inactive) | – | > 100 µM (inactive) | > 100 µM (inactive) | > 100 µM (inactive) | 51.1 µM (inactive) | 72.8 µM (inactive) | > 100 µM (inactive) | 89.3 µM (inactive) | > 100 µM (inactive) | > 100 µM (inactive) | > 100 µM (inactive) | 47.9 µM (inactive) | – | > 100 µM (inactive) | > 100 µM (inactive) | > 100 µM (inactive) | > 100 µM (inactive) | – |
| N#CCCN(CCN(CCN(C(=O)Nc1ccccc1)c1ccccc1)C(=O)Nc1ccccc1)C(=O)Nc1ccccc1 | > 100 µM (inactive) | – | 28.2 µM (inactive) | > 100 µM (inactive) | 20.7 µM (inactive) | 15.2 µM (inactive) | > 100 µM (inactive) | – | > 100 µM (inactive) | 67.6 µM (inactive) | > 100 µM (inactive) | > 100 µM (inactive) | 5.7 µM (inactive) | 48.4 µM (inactive) | > 100 µM (inactive) | 26 µM (inactive) | > 100 µM (inactive) | > 100 µM (inactive) | 24.7 µM (inactive) | – |
